Where “and” joins values, the source holds several entries; their conditions need not be identical. Equal values may be shown once. One block for each compound: values may come before it.
Tests used:
[1] = tested on: rat gastric corpus mucosa; assay: Acid secretion (mucosal fluid pH) of dB-cAMP stimulated tissue in Ussing chambers; details: ex vivo addition; 200 μM omeprazole, 200 μM lansoprazole, 100 μM esomeprazole
Experimental: Water-jacketed reservoirs maintained chamber saline at 37° C.
In order to confirm stimulation of acid secretion by secretagogue addition and to verify the efficacy of the PPI, mucosal fluid compartment pH was recorded at intervals throughout the experiment with a manual electrode (Denver Instruments, Denver, Colo.). Ag/AgCl voltage and current electrodes were used to measure PD (potential difference) and ISC (short circuit current) approximately every five minutes for the duration of the experiment, as previously described (Hameed et al. (2004) Dig. Dis. Sci., 49:1381-1386), using two single-channel current/voltage clamps (McGrath Research and Technology). Ohm's Law was used to calculate transepithelial electrical resistance across the tissue.
Mucosal and serosal saline pH measurements were taken at approximately five minute intervals using a manual electrode (Denver Instruments) to ensure that the tissue was secreting acid. Mucosal pH readings were also taken before and after the addition of omeprazole to document the action of omeprazole on inhibiting acid secretion. Tissue viability was confirmed at the end of each experiment by tissue exposure to 10 mM amiloride in the mucosal fluid compartment in order to inhibit short circuit current.

[2] = tested on: rat gastric corpus mucosa; assay: Transepithelial flux of 14C-labeled probes (mannitol, sucrose, polyethylene glycol) before and after PPI; details: for Post-Omeorazole transmucosal flux / Pre-Omeorazole transmucosal flux: mean +/- SE, 3 experiments; for Pre-Omeorazole transmucosal flux: before 200 μM omeprazole
Experimental: In each experiment, one adult male Sprague Dawley rat was sacrificed by decapitation. The stomach was removed, flushed, and stripped of its outer serosal membrane, while being frequently moistened with chilled, unbuffered saline. Two pieces of corpus mucosa were mounted in modified Ussing chambers, with exposed tissue surface area of 1.13 cm^2. Chambers were connected to gas-lift reservoirs, with a fluid volume of 17 mL per hemichamber. The mucosal hemichamber was filled with unbuffered saline (with 17 mM glucose) and kept aerated and perfused with 100% O2 at 37° C. […] Water-jacketed reservoirs maintained chamber saline at 37° C.
KRB was adjusted to a pH of 7.3-7.4.
Unbuffered saline was gassed with 100% O2 and was used to bathe the mucosal side of the gastric mucosa.
Approximately 30 minutes after tissues were mounted in Ussing chambers, dibutyrl cyclic AMP (dB-cAMP) (Sigma, St. Louis, Mo.) was added to the serosal sides of both chambers to a concentration of 1 mM in order to stimulate acid output by the tissue.
Three experiments were performed with each PPI, examining gastric permeability to ^14C-mannitol.
Three experiments were performed at each omeprazole concentration.

[3] = tested on: rat gastric corpus mucosa; assay: Transepithelial drug flux studies (3H-digoxin, 14C-phenytoin, mucosal to serosal) before and after omeprazole or DMSO; format: in vitro ADME; details: 0.1 mM probe
Experimental: Sprague Dawley male rats weighing approximately 400 grams were sacrificed by decapitation and the stomach was quickly removed, cut along the greater curvature, and flushed of luminal contents. The serosal membrane was then stripped from the corpus region and two equal sized pieces of corpus mucosa were mounted in two separate Ussing chambers with exposed tissue areas of 1.13 cm^2. Chambers were connected to 15 mL gas-lift reservoirs filled with un-buffered saline aerated with 100% O2 and bicarbonate-buffered saline aerated with 95% O2/5% CO2 on the mucosal and serosal sides, respectively. Saline temperature was held constant at 37° C. by a jacketed water bath surrounding the reservoirs. 30 minutes at 37° C. was allowed for tissue equilibration. In paired experiments, one tissue served as (vehicle) ‘control’, and the other as omeprazole-treated ‘experimental’.
After 30 minutes of tissue equilibration time in Ussing chambers, dibutyrl cyclic AMP (dBcAMP) (Sigma) was added to a final concentration of 1 mM to the serosal fluid chambers to stimulate acid secretion. […] The addition of the isotope marked the beginning of the flux period. 150 μL or 250 μL samples were taken from the serosal fluid compartment (opposite from which the isotope was added) for liquid scintillation counting (LSC). Samples were initially taken at 30 minute intervals for 90 minutes for the ^14C-phenytoin flux or at 15 minute intervals for 75 minutes for the ^3H-digoxin flux to establish the basal permeability rate (ρmoles/min/cm^2) across the tissue. 200 μM omeprazole (Sigma) (in DMSO) was then added to the mucosal and serosal sides of one chamber and an equivalent amount of DMSO (Sigma) was also added to both sides of the control chamber. Another series of serosal fluid samples were taken for LSC at 15 or 30 minute intervals for the remaining 60 minutes of ^3H-digoxin or ^14C-phenytoin flux experiments, respectfully, to determine flux rate of the radiolabeled drugs after omeprazole addition. In all cases of fluid sampling for liquid scintillation counting, an equal amount of fresh buffered saline was added back to the serosal side to prevent hydrostatic gradients from developing across the tissue. The flux of each isotope (ρmole/min/cm^2) was determined by calculating the linear regression slope of the graph of cpm versus time, and converting cpm to picomoles after determining the specific activity of the drug in the mucosal fluid.
To observe if the omeprazole-induced leak allows for permeation of certain small molecule drugs, ^3H-digoxin was added to the mucosal fluid compartment and saline samples were taken at 15 minute intervals from the serosal fluid compartments for a 135-minute flux period. Omeprazole and/or DMSO were added to their respective tissues 75 minutes after the addition of the isotope. Radioactivity present in the serosal fluid compartment was measured as a function of time before and after the addition of omeprazole or DMSO.

[4] = tested on: first-time-presenting GERD patients; assay: Sucrose permeability test before and at the end of an 8 week course of esomeprazole (NEXIUM); format: in vivo, human
Experimental: Patients with GERD were recruited from a primary care practice, to which they were presenting for the first time with their disease. […] With the exception of their GERD, these patients met the above criteria at the time of their recruitment, and were recruited in a similar manner. […] An 8 hour overnight urine sample was collected in a container with 5 ml of 10% thymol in isopropanol as antimicrobial preservative. A courier service picked up urine containers at the patient's home and delivered them to the research laboratory. Total urine volume and refractive index were measured and recorded. […] This amount of sucrose equates to the amount of sucrose which leaked from the upper GI lumen. The next study posed the question of whether PPI therapy would improve barrier function in the upper GI tract by allowing for reduction of mucosal inflammation and damage ensuing from esophagitis and gastritis. An early hypothesis was that PPI therapy would improve barrier function in the upper GI tract of first-time-presenting GERD patients, by allowing for reduction of mucosal inflammation and damage ensuing from any esophagitis or gastritis. […] As previously mentioned, this was in contrast to an earlier study (Mullin et al. (2006) Dig. Dis. Sci., 51:2326-36) which utilized GERD patients who had been previously diagnosed and under the care of a gastroenterologist. […] A 4 week follow up check was performed on all patients, and all reported significant symptom improvement with mild if any side effects.

healthy controls [5] = assay: Sucrose permeability test, time course and reversibility of the esomeprazole-induced leak; format: in vivo, human; details: for durations with statistically significant elevation of sucrose leak: esomeprazole 40 mg once/day for 1, 2, 3, 5, 7 or 9 days, P<0.05
Experimental: Healthy controls were recruited without regard to gender or ethnicity, from an age range of 18-80. Their exclusion criteria were no prior gastrointestinal surgery and no current gastrointestinal disease. Because of the nature of the permeability test being used, diabetics and those with renal insufficiency were likewise excluded. Those participating did so only after personally signing an informed consent that was approved prior by the Lankenau Hospital Institutional Review Board. […] An 8 hour overnight urine sample was collected in a container with 5 ml of 10% thymol in isopropanol as antimicrobial preservative. A courier service picked up urine containers at the patient's home and delivered them to the research laboratory. Total urine volume and refractive index were measured and recorded. […] This amount of sucrose equates to the amount of sucrose which leaked from the upper GI lumen. The next study was begun to reduce the (disease) variables that may be at play in working with a GERD population and simultaneously assess the time course with which a PPI leak may establish. As described above, a volunteer group of healthy controls without any active GI disease or prior surgeries was recruited. Volunteers were randomly assigned to duration groups of 1, 2, 3, 5, 7 or 9 days. […] As in FIG. 2, a rising bar indicates greater leak in the second test, a falling bar indicates a lower leak at the second test. […] However the average leak of the second test was greater than the first by the second day and then consistently climbed further out through the nine days. […] The figure gives the average leak of the first (pre esomeprazole) test, the second test and the third (4 day post-esomeprazole) test. Although the second test is statistically different from the first or the third (P<0.01), the third test is not statistically different from the first, evidencing the relative rapid reversibility of the leak phenomenon.

healthy controls [6] = assay: Sucrose leak test before and after five days of omeprazole or famotidine; format: in vivo, human
Experimental: An 8 hour overnight urine sample was collected in a container with 5 ml of 10% thymol in isopropanol as antimicrobial preservative. A courier service picked up urine containers at the patient's home and delivered them to the research laboratory. Total urine volume and refractive index were measured and recorded. […] This amount of sucrose equates to the amount of sucrose which leaked from the upper GI lumen.
H-2 blockers such as PEPCID® (famotidine) also cause a GI leak. The instant study was first performed with 20 subjects, all healthy controls. Randomly 10 were put on PPIs (20 mg of omeprazole), 10 on H-2 blockers (40 mg of famotidine). These amounts are standard for acid suppression therapy. […] They were given doses of these drugs in the morning for five days. A sucrose leak test was done the night of the fifth and last day.
Therefore, a second H-2 blocker study was performed looking at leak in an n=5 group but doing evening doses of famotidine and maintaining the other aspects of the above study, with the post H-2 blocker leak test performed again the night of the 5th dose, but now only with a 4-6 hours after the 5th and final dose.

[7] = 0.1 mM 14C-labeled probe, after 200 μM omeprazole

SMILES: Cc1c(OCC(F)(F)F)ccnc1C[S+]([O-])c1nc2ccccc2[nH]1 (centres unmarked) [lansoprazole, 2-(((3-methyl-4-(2,2,2-trifluoro-ethoxy)-2-pyridinyl)methyl)sulfinyl)-1H benzimidazole]
effect on acid secretion (rate of mucosal acidification) [1]: inhibited acid secretion
% Increase in Flux of 14C-[D]-mannitol ([2]; 200 μM PPI): 83.35%
% Increase in Flux of 14C-[D]-mannitol ([2]; 200 μM PPI, listed as Lansoprazole): 83.35 +/− 20.71%

SMILES: OC[C@@H](O)[C@@H](O)[C@H](O)[C@H](O)CO [[D]-Mannitol]
% Increase in Flux After Omeprazole ([3]; 200 μM omeprazole): 68.7% ± 8.4%
Post-Omeprazole Flux Value ([3]; after 200 μM omeprazole, corrected by TLC): 31.6 ± 3.9 ρmole/min/cm^2
Pre-Omeprazole Flux Value ([3]; before 200 μM omeprazole, 3 experiments): 21.2 ± 5.3 ρmole/min/cm^2
% Increase in Flux After DMSO ([3]; vehicle control tissue): 23.0% ± 15.3%
Post-DMSO Flux Value ([3]; vehicle control tissue, corrected by TLC): 27.2 ± 2.4 ρmole/min/cm^2
Pre-DMSO Flux Value ([3]; vehicle control tissue, mean ± SEM, 3 experiments): 22.7 ± 3.3 ρmole/min/cm^2
% Increase in Flux [2, 7]: 68.72% and 68.72 +/− 8.32%
Post-Omeorazole transmucosal flux [2, 7]: 37.81 +/− 1.32 ρmoles/min/cm^2
Pre-Omeorazole transmucosal flux ([2]; 0.1 mM 14C-labeled probe): 22.45 +/− 0.61 ρmoles/min/cm^2

Post-Omeorazole transmucosal flux [2, 7]: 24.19 +/− 4.67 ρmoles/min/cm^2
Pre-Omeorazole transmucosal flux ([2]; 0.1 mM 14C-labeled probe): 11.71 +/− 3.39 ρmoles/min/cm^2
SMILES: OC[C@H]1O[C@@](CO)(O[C@H]2O[C@H](CO)[C@@H](O)[C@H](O)[C@H]2O)[C@@H](O)[C@@H]1O [Sucrose]

SMILES: COc1ccc2nc([S@@+]([O-])Cc3ncc(C)c(OC)c3C)[nH]c2c1 [esomeprazole]
effect on acid secretion (rate of mucosal acidification) [1]: inhibited acid secretion
% Increase in Flux of 14C-[D]-mannitol ([2]; 100 μM PPI): 101.62%
% Increase in Flux of 14C-[D]-mannitol ([2]; 100 μM PPI, listed as Esomeprazole): 101.62 +/− 10.04%
average initial sucrose leak ([4]; before esomeprazole, 26 patients, mean, SEM): 72 mg
average initial leak, all patients ([4]; before esomeprazole, all 37 patients): 179 mg
patients whose post-NEXIUM sucrose leak was smaller ([4]; end of 8 week course vs before): 4 of 25
patients whose post-NEXIUM sucrose leak was greater ([4]; end of 8 week course vs before, total sucrose in overnight urine): 21 of 26
patients with increased leak above the 200 mg threshold level ([4]; end of 8 week esomeprazole 40 mg/day): 14 of 21
mean final sucrose leak ([4]; end of 8 week esomeprazole 40 mg/day, 26 patients, mean, SEM): 325 mg
final leak, all patients ([4]; end of 8 week esomeprazole 40 mg/day, all 37 patients): 307 mg
sucrose leak in third test (reversibility) (healthy controls [5]; 4 days after finishing 5, 7 or 9 day esomeprazole course, n=9): decreases to near baseline
leak in second test greater than first (pre esomeprazole) test, average (healthy controls [5]; day 9 of esomeprazole 40 mg once/day): ~400 mg
durations with statistically significant elevation of sucrose leak (healthy controls [5]): fifth day
durations with statistically significant elevation of sucrose leak (healthy controls [5]; listed as NEXIUM®): 5, 7 and 9 day durations

SMILES: NC(N)=Nc1nc(CSCCC(N)=NS(N)(=O)=O)cs1 [famotidine]
pre-med sucrose leak (healthy controls [6]; baseline before medication, n=10 per group, SEM): 50 mg
pre H-2 blocker leak, second study (healthy controls [6]; baseline, n=5, SEM): 46 mg
post H-2 blocker leak, second study (healthy controls [6]; evening doses of famotidine, test 4-6 hours after 5th dose, n=5, P=0.03): 132 mg
post med sucrose leak (healthy controls [6]; morning doses for five days (20 mg omeprazole or 40 mg famotidine), test night of fifth day, n=10): 110 mg
